Literature values, collected in patent US20050049268A1, “Use of at least one abl, kit and/or platelet-derived growth factor receptor tyrosine kinases inhibitor for treating hair depigmentation” (priority 2001, published 2005).

What was measured:
c-Met = c-Met (Homo sapiens, UniProt P08581)
Jak-2 = Jak-2 (Homo sapiens, UniProt O60674)
α-PDGF receptor = α-PDGF receptor (Homo sapiens, UniProt P16234)
β-PDGF receptor = β-PDGF receptor (Homo sapiens, UniProt P09619)
[1] = target: receptor for stem cell factor (Homo sapiens, UniProt P10721)
Chain of receptor for stem cell factor (P10721 26-976): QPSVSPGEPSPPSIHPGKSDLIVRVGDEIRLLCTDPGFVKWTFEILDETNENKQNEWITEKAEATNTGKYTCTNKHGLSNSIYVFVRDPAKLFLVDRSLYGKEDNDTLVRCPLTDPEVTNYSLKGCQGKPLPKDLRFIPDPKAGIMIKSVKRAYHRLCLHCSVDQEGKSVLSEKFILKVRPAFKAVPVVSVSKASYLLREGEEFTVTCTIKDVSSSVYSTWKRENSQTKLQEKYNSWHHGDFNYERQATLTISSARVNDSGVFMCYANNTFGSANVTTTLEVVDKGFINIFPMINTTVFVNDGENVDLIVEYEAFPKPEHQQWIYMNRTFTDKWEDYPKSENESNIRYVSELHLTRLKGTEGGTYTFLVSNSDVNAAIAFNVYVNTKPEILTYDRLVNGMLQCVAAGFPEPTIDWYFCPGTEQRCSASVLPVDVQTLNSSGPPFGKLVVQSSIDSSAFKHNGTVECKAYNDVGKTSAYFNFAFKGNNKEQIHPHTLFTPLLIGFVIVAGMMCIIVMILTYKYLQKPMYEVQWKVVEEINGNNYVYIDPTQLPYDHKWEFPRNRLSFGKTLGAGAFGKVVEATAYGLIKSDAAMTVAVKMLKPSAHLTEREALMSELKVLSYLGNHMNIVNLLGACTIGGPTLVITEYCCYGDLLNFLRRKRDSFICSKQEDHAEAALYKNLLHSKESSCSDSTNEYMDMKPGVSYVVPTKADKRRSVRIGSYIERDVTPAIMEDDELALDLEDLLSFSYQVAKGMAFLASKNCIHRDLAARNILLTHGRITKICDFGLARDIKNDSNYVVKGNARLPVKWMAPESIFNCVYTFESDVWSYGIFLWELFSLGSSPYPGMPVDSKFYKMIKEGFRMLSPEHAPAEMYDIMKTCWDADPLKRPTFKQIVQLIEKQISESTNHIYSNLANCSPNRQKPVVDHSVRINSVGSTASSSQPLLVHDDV

[2] = system: platelet-derived growth factor (PDGF) receptor tyrosine kinases; conditions: in vitro

Chain of β-PDGF receptor (P09619 33-1106): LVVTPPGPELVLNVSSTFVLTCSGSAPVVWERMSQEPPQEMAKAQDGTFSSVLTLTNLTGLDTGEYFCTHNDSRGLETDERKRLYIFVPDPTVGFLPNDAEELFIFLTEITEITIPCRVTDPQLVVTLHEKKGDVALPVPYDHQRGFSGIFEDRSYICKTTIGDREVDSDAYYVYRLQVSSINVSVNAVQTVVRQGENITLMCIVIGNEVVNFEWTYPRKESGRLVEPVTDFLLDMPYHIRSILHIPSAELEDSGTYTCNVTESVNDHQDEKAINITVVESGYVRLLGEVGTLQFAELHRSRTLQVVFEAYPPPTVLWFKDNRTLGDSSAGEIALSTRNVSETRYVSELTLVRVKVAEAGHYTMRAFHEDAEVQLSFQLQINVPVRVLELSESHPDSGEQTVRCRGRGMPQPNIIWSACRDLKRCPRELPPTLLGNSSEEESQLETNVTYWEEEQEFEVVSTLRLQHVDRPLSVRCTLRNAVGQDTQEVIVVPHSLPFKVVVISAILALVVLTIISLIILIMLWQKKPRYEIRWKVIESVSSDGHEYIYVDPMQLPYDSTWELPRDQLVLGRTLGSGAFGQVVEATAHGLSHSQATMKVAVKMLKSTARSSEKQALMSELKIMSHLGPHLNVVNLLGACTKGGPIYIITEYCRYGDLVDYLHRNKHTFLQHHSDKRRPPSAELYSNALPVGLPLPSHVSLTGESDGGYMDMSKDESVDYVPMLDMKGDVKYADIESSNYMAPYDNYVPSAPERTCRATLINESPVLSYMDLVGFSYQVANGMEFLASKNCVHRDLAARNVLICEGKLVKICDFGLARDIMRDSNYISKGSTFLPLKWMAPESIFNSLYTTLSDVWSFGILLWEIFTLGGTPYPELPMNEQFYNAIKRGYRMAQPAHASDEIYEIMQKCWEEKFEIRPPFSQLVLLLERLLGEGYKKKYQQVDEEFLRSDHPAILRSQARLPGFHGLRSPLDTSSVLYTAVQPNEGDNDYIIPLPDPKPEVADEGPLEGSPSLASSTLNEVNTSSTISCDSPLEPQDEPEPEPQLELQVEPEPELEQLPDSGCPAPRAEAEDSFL
Chain of α-PDGF receptor (P16234 24-1089): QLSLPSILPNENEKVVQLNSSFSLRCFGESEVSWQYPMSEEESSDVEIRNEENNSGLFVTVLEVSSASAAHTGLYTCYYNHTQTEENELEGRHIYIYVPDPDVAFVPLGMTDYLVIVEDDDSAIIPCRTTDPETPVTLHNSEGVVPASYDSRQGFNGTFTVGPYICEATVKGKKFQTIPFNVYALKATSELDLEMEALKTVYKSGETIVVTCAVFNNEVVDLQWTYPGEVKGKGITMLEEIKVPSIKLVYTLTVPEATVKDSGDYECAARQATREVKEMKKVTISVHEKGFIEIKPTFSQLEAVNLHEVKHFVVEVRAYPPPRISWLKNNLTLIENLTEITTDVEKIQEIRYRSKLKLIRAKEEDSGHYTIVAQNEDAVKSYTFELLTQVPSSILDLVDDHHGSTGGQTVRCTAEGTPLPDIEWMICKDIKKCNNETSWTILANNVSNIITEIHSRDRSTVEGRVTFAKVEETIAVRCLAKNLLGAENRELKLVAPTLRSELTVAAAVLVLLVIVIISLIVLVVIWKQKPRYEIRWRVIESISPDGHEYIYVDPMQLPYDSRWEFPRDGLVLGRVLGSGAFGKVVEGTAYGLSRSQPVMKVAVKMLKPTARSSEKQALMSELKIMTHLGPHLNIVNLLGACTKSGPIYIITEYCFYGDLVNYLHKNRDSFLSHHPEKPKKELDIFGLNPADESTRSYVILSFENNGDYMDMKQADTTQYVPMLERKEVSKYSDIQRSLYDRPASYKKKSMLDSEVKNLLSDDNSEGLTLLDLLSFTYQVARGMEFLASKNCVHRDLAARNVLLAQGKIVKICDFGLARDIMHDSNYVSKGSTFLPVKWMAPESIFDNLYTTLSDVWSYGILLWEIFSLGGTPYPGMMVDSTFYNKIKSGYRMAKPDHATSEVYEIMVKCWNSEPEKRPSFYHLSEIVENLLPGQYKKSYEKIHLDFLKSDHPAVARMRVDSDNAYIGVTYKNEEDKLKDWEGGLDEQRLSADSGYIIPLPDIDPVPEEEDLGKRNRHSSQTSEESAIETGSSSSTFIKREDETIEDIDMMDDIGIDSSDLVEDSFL
Chain of c-Met (P08581 25-1390): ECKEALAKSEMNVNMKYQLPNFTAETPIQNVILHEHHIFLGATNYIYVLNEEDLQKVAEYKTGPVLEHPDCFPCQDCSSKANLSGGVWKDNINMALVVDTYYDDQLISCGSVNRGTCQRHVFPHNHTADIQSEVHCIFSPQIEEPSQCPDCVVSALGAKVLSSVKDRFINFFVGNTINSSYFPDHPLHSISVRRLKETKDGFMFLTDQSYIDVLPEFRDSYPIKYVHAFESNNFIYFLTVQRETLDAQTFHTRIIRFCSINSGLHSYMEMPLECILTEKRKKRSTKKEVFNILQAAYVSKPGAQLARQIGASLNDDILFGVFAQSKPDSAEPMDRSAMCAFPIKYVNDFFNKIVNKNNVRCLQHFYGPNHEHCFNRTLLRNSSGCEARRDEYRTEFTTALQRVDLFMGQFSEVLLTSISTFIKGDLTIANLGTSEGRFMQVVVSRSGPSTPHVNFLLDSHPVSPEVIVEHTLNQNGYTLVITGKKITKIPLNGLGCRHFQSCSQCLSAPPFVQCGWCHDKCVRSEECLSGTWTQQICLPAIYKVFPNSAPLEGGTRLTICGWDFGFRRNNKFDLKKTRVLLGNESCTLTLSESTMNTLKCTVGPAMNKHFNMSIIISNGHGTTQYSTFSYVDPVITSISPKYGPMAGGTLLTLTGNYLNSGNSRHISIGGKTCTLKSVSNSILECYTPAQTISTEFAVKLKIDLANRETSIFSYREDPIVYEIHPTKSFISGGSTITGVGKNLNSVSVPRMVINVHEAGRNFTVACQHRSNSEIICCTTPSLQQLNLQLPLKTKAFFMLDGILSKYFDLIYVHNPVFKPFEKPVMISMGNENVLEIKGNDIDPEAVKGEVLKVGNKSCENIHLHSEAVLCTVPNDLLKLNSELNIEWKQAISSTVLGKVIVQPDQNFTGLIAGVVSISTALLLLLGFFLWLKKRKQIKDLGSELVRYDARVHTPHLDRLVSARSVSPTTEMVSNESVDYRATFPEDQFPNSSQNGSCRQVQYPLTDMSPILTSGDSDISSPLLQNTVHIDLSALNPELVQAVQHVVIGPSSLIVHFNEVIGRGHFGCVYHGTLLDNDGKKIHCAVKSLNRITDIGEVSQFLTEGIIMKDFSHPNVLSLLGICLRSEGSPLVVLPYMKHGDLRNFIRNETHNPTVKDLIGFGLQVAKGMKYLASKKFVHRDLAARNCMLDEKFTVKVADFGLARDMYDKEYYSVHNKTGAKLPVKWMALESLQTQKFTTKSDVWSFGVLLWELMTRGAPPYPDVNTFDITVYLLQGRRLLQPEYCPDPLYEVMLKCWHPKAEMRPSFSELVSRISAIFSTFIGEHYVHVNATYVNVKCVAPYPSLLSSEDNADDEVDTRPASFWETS

SMILES: Cc1ccc(NC(=O)c2ccc(CN3CCN(C)CC3)cc2)cc1Nc1nccc(-c2cccnc2)n1 [Imatinib, N-{5-[4-(4-methyl-piperazino-methyl)-benzoylamido]-2-methylphenyl}-4-(3-pyridyl)-2-pyrimidine-amine]
- inhibition of c-Met (c-Met): no inhibition
- inhibition of Jak-2 (Jak-2): no inhibition
- inhibition of kinase activity of α-PDGF receptor (α-PDGF receptor): potently inhibit
- inhibition of kinase activity of β-PDGF receptor (β-PDGF receptor): potently inhibit
- inhibition of kinase activity of the receptor for stem cell factor [1]: potently inhibit
- inhibition of PDGF receptor tyrosine kinases [2]: selectively inhibits
